One experiment concerns the target PTBR (Homo sapiens, UniProt P30536). The settings on record: cited from earlier work.
The test system of experiment [1] is guinea pig heart preparation. The note with it: cited from earlier work.
In experiment [2] the test system is neonatal rat cardiomyocytes. Nature of the experiment: Protein synthesis ([3H]phenylalanine incorporation) in neonatal rat cardiomyocytes. It is filed as cell-based. From the text: Neonatal rat ventricular cardiomyocytes were isolated from one or two days old rat pups using the following reagents and isolation procedure:
When cardiomyocytes undergo hypertrophy several biochemical parameters can be monitored. There is an increase in protein synthesis and atrial natriuretic peptide (ANP) synthesis and an upregulation of the β-myosin heavy chain gene. These three parameters were used to assess the effects of ligands of the peripheral-type benzodiazepine receptor (PTBR) upon neonatal rat cardiomyocytes.
Protein synthesis is assessed by including radiolabelled amino acids in the experimental incubation medias (i.e., [^3H]phenylalanine) at the end of the incubation the cell monolayer is washed with phosphate bufered saline, fized with 10% TCA and lysed with 0.25N NaOH. The total cell lysate is then assessed for tritium contant by scintillation spectrometry.
a. Neonatal rat cardiomyocytes were cultured in 24-well plates for 24 hours in serum-free medium. Medium was then removed and replaced with experimental culture medium containing [^3H]phenylalanine (10 μCi/ml) and either the PTBR agonist Ro5-4864 (RBI, MA, USA) in a concentration range of 10^−12-10^−8 M, or the PTBR antagonist PK11195 (RBI, MA, US) in a concentration range of 10^−12-10^−8 M. Control incubations received [^3H]phenylalanine (10 μCi/ml) containing medium alone. Cell cultures were returned to the incubator for a further 48 hour incubation after which time the cell culture supernatants were harvested for ANP analysis and the cell monolayers were prepared for assessment of tritium incorporation. […] However, at concentrations greater than or equal to 10^−11 M, the PTBR agonist Ro5-4864 caused a three-fold increase in protein synthesis and a five-fold increase in ANP synthesis. Data are expressed as the mean+/−standard deviations of quadruplet samples.
b. Neonatal rat cardiomyocytes were cultured in 24-well plates for 24 hours in serum-free medium. Medium was then removed and replaced with experimental culture medium containing [^3H]phenylalanine (10 μCi/ml) and either the PTBR agonist Ro5-4864 (RBI, MA, USA) in a concentration range of 10^−12-10^−8 M, or the PTBR antagonist PK11195 (RBI, MA, US) at a concentration of 10^−10 M. Control incubations received [^3H]phenylalanine (10 μCi/ml) containing medium alone. Cell cultures were returned to the incubator for a further 48 hour incubation after which time the cell culture supernatants were harvested for ANP analysis and the cell monolayers were prepared for assessment of tritium incorporation. […] Data are expressed as the mean+/−standard deviations of quadruplet samples.

In experiment [3] the test system is isolated rat heart preparation. The note with it: cited from earlier work.
Experiment [4] deals with isolated perfused Langendorf rat heart. The note with it: cited from earlier work.
Experiment [5] concerns isolated working rat heart. The settings on record: cited from earlier work.
The test system of experiment [6] is neonatal rat cardiomyocytes. Description: ANP synthesis (competition binding ELISA of culture supernatants) in neonatal rat cardiomyocytes. Format: cell-based. (ELISA stands for enzyme-linked immunosorbent assay.)
The next experiment deals with human atrial strips. The note with it: cited from earlier work.
The subject of experiment [7] is neonatal rat cardiomyocytes. Description: Hypertrophic response of neonatal rat cardiomyocytes (conclusions over all readouts). Format: cell-based.
The next experiment relates to β-MHC promoter. Description: β-MHC promoter-luciferase reporter in neonatal rat cardiomyocytes. It is filed as cell-based. The note with it: greater than or equal to 10^-11 M; 24 hours; normalized to SEAP; FIG. 9. How it is done:
To monitor the expression of β-MHC, β-MHC promoter-luciferase reporter plasmid was constructed. This plasmid is inserted into the cardiomyocyte cultures by liposome mediated transfection and luciferase activity in cell lysates determined following incubation. The amount of luciferase actvity is directly proportional to the level of transcription of the β-MHC gene.
c. Neonatal cardiomyocytes were cultures in 6-well plates overnight following isolation. The cell monolayers were then transfected with a β-MHC promoter-luciferase reported plasmid and a control plasmid to aid data normalization (pSEAP2 Clontech Corp) using lipofectamine liposome mediated plasmid delivery. Following recovery from the transfection, the cell cultures were treated for 24 hours in the presence and absence of the PTBR agonist Ro5-4864 at 10^−12 M, 10^−11 M and 10^−10 M. The culture supernatants were then harvested for SEAP activity and cell lysates prepared for luciferase assay. […] Data are expressed as the mean+/−standard derivations of triplicate samples.
In general terms: A reporter such as luciferase makes a cellular process visible.

Experiment [8] deals with neonatal rat cardiomyocytes. Nature of the experiment: Morphology of neonatal rat cardiomyocyte cultures (photography). Format: cell-based. The settings on record: 10^-10 M, serum-free. As for the experimental part: When cardiomyocytes undergo hypertrophy, their morphology changes quite drastically. The cells become larger and more spread out so another technique employed to monitor hypertrophic effects on cardiomyocytes is to assess their morphology and document that by photography.
d. Neonatal rat cardiomyocytes were cultures in 6-well plates overnight following isolation. […] FIGS. 10B and 10C show the same cultures following 96 hours of culture and the differenes between control and treated are quite striking.

Experiment [9] has as its system [3H]diazepam binding to heart tissue. The note with it: cited from earlier work.
For experiment [10] the following is noted: dogs; cited from earlier work.
In experiment [11] the test system is isolated cardiac and smooth muscle. The note with it: cited from earlier work.
The conditions of experiment [12]: following intravenous administration; cited from earlier work.
[13] abbreviates: 10^-11 M PK11195 (so in the source), Ro5-4864 10^-12-10^-10 M, 48 hour, FIG. 8.
The mark [14] stands for this setting: compound alone, 10^-12-10^-8 M, 48 hour incubation, FIG. 7.
[15] abbreviates: isolated perfused Langendorf rat heart.
Setting [16] is: Ro5-4864 at higher concentrations (10^-11-10^-8 M) with 10^-10 M PK11195, FIG. 8.
Setting [17] is: concentrations greater than or equal to 10^-11 M, 48 hour incubation, vs control, FIG. 7.

Results on six molecules are retold here after patent publication US6686354B2, “Agonists and antagonists of peripheral-type benzodiazepine receptors” (Scios, Inc., priority 1998, dated 2004).

Chain of [3H]diazepam binding to heart tissue (P30536 2-169 limits assumed): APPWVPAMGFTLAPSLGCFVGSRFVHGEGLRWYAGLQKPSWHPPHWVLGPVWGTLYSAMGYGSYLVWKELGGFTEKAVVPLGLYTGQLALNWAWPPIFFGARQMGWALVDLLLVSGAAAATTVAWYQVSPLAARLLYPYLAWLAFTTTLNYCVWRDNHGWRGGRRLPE
Chain of PTBR (P30536 whole entry): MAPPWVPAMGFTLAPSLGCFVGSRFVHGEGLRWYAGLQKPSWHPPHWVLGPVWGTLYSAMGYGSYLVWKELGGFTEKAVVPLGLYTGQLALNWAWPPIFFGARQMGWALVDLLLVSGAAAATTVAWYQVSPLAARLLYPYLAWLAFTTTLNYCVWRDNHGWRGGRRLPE

For “trikontetraneuropeptide: shorter fragment of DBI (fragment 17-50) (KTKPSDEEMLFIYGHYKQATVGDINTERPGMLDF; Triakontatetraneuropeptide; UniProt P07108 17-50, looked up, fragment)”, the “selectivity for PTBR relative to DBI” value in the experiment with PTBR is given as “more selective for PTBR”.

For the molecule `O=C1CN=C(c2ccccc2Cl)c2cc([N+](=O)[O-])ccc2N1` [clonazepam], in experiment [1], the “duration of intracellular action potential and contractility” value (shortened to “duration”) is listed as “ineffective”.

Regarding `CCC(C)N(C)C(=O)c1cc2ccccc2c(-c2ccccc2Cl)n1` (centres unmarked) [PK11195, 1-(2-chlorophenyl)-N-methyl-N-(1-methylpropyl)-3-isoquinoline carboxamide], in experiment [2] (setting [13]), the “effect on the Ro5-4864 induced increase in protein synthesis” value is given as “prevented”. Further, the “effect on protein synthesis (incorporation of radiolabelled phenylalanine)” value in experiment [2] (setting [14]) is “no effects”. Besides, the “antagonism of the positive inotropy induced by diazepam” value in experiment [3] was “antagonized”. The “antagonism of the vasodilatory effect of Ro5-4864” value in [4] (setting [15]) is reported as “did not antagonize”. For the same molecule, the “effect on cardiac function” value in experiment [5] is reported as “depress cardiac function”. Further, in experiment [6] (setting [13]), the “effect on the Ro5-4864 induced increase in ANP synthesis” value is “prevented”. Also, the “effect on ANP synthesis” value in experiment [6] (setting [14]) is listed as “no effects”. The “reversal of the effects of Ro5-4864” value in [1] is on record as “reversed”. The “antagonism of the depressant effect of Ro5-4864” value with human atrial strips is reported as “not antagonized”. Besides, the “reversal of the Ro5-4864 hypertrophic effect” value in experiment [7] (coincubation of Ro5-4864 with PK11195) is given as “can be reversed”.

On to `CN1C(=O)CN=C(c2ccc(Cl)cc2)c2cc(Cl)ccc21` [Ro5-4864], for which the “agonist induced increase in protein synthesis in the presence of PK11195” value in experiment [2] (setting [16]) was “able to overcome the inhibitory effect of PK11195”. Also, the “increase in protein synthesis (incorporation of radiolabelled phenylalanine)” value in experiment [2] (setting [17]) is reported as “three-fold”. For the same molecule, in experiment [4] (setting [15]), the coronary flow entry was “increase coronary flow”; the “heart rate and left ventricular contractility” value is “without affecting”. In addition, the “effect on cardiac function” value in experiment [5] was “depress cardiac function”. For the same molecule, in the experiment with β-MHC promoter, the “increase in luciferase activity (transcriptional activity from the β-MHC promoter)” value is “three-fold”. Moreover, the “agonist induced increase in ANP synthesis in the presence of PK11195” value in experiment [6] (setting [16]) was “able to overcome the inhibitory effect of PK11195”. Besides, in experiment [6] (setting [17]), the “increase in ANP synthesis” value is “five-fold”. The “duration” value in [1] is “decreased”. Also, the “cell size / morphology of cardiomyocytes” value in experiment [8] (24 hours of culture, FIG. 10A) was “larger cell size”. The “cell size / morphology of cardiomyocytes” value in experiment [8] (96 hours of culture, FIGS. 10B and 10C) was “much larger and adherent to the extracellular matrix”. Besides, the “depressant effect on the contraction amplitude (negative inotropic effect)” value with human atrial strips is on record as 20%. Also, the “hypertrophic response: increase in protein synthesis, ANP synthesis, transcription of the β-MHC gene reporter” value in [7] (summary of Example 2) is given as “three- to five-fold”.

Turning to `OCCN(CCO)c1nc(N2CCCCC2)c2nc(N(CCO)CCO)nc(N3CCCCC3)c2n1` [dipyridamole], in [9], the “competition of [3H]diazepam binding” value is “can compete”.

As to `CN1C(=O)CN=C(c2ccccc2)c2cc(Cl)ccc21` [diazepam], in [10], the “potentiation of the coronary vasodilator action of adenosine” value is recorded as “potentiates”. The inotropic effect result in experiment [3] was “transient negative inotropic effect followed by a positive inotropic response”. In addition, in experiment [4] (Langendorf rat heart), the contractile force entry was “increased contractile force”. Moreover, the “potentiation of the actions of adenosine” value in experiment [11] was “potentiates”. Moreover, in experiment [12], the vagal tone result is on record as “decrease”. The “duration” value in experiment [1] was “less effective”.
